System: 648629-189-R-J1-PDC spheroids with HUVEC/MSC, viability
Assay: Anticancer human tumor 648629-189-R-J1-PDC patient-derived bladder carcinoma cell line growth inhibition [PI3K]
Conditions: for viability, T/C: stronger effect = lower value; active = viability on the fitted dose curve at most 10% of control; inactive = the rest
Method in brief: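 Targeted small molecules plus PI3K inhibitors, half-log dose series from Cmax (default top 10 microM), were applied to heterotypic spheroids of cancer cells with HUVEC and MSCs. Viability indicated growth inhibition.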

[1] = curve of first compound, second compound 0.0316 µM
[2] = curve of first compound, second compound 0.1 µM
[3] = curve of first compound, second compound 0.316 µM
[4] = curve of first compound, second compound 1 µM
[5] = curve of first compound, second compound 3.16 µM
[6] = curve of first compound, second compound 10 µM
[7] = second compound 0.0316 µM, first compound 0.0316 µM
[8] = second compound 0.0316 µM, first compound 0.1 µM
[9] = second compound 0.1 µM, first compound 0.0316 µM
[10] = second compound 0.1 µM, first compound 0.1 µM
[11] = second compound 0.316 µM, first compound 0.0316 µM
[12] = second compound 0.316 µM, first compound 0.1 µM
[13] = second compound 1 µM, first compound 0.0316 µM
[14] = second compound 1 µM, first compound 0.1 µM
[15] = second compound 3.16 µM, first compound 0.0316 µM
[16] = second compound 3.16 µM, first compound 0.1 µM
[17] = second compound 10 µM, first compound 0.0316 µM
[18] = second compound 10 µM, first compound 0.1 µM
[19] = second compound 0.0316 µM, first compound 0.316 µM
[20] = second compound 0.0316 µM, first compound 1 µM
[21] = second compound 0.0316 µM, first compound 3.16 µM
[22] = second compound 0.0316 µM, first compound 10 µM
[23] = second compound 0.1 µM, first compound 0.316 µM
[24] = second compound 0.1 µM, first compound 1 µM
[25] = second compound 0.1 µM, first compound 3.16 µM
[26] = second compound 0.1 µM, first compound 10 µM
[27] = second compound 0.316 µM, first compound 0.316 µM
[28] = second compound 0.316 µM, first compound 1 µM
[29] = second compound 0.316 µM, first compound 3.16 µM
[30] = second compound 0.316 µM, first compound 10 µM
[31] = second compound 1 µM, first compound 0.316 µM
[32] = second compound 1 µM, first compound 1 µM
[33] = second compound 1 µM, first compound 3.16 µM
[34] = second compound 1 µM, first compound 10 µM
[35] = second compound 3.16 µM, first compound 0.316 µM
[36] = second compound 3.16 µM, first compound 1 µM
[37] = second compound 3.16 µM, first compound 3.16 µM
[38] = second compound 3.16 µM, first compound 10 µM
[39] = second compound 10 µM, first compound 0.316 µM
[40] = second compound 10 µM, first compound 1 µM
[41] = second compound 10 µM, first compound 3.16 µM
[42] = second compound 10 µM, first compound 10 µM
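Also: spheroids exposed to agents for seven days before reading.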
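For viability, T/C in this document: percent of vehicle control luminescence where 100% = DMSO treated spheroids.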

CCN1CCN(Cc2ccc(Nc3ncc(F)c(-c4cc(F)c5nc(C)n(C(C)C)c5c4)n3)nc2)CC1
inactive: viability, T/C (compound 0.00316 µM) 107% [middle of 4 runs] | viability, T/C (compound 0.01 µM) 96.7% [middle of 4 runs] | viability, T/C (compound 0.0316 µM) 103% [middle of 4 runs] | viability, T/C (compound 0.1 µM) 103% [middle of 4 runs] | viability, T/C (compound 0.316 µM) 109% [middle of 4 runs] | viability, T/C (compound 1 µM) 117% [middle of 4 runs]
> 1 µM: IC50 (curve of compound)

Cn1ncnc1[C@H]1c2n[nH]c(=O)c3cc(F)cc(c23)N[C@@H]1c1ccc(F)cc1 + Cc1nc(NC(=O)N2CCCC2C(N)=O)sc1-c1ccnc(C(C)(C)C(F)(F)F)c1
0.0159 µM: IC50 [5]
0.0894 µM: IC50 [4]
inactive: viability, T/C (second compound 0.0316 µM, first compound 0.000316 µM) 117% | viability, T/C (second compound 0.0316 µM, first compound 0.001 µM) 101% | viability, T/C (second compound 0.0316 µM, first compound 0.00316 µM) 91.2% | viability, T/C (second compound 0.0316 µM, first compound 0.01 µM) 82.1% | viability, T/C [7] 83.4% | viability, T/C [8] 64.7% | viability, T/C (second compound 0.1 µM, first compound 0.000316 µM) 115% | viability, T/C (second compound 0.1 µM, first compound 0.001 µM) 96.9% | viability, T/C (second compound 0.1 µM, first compound 0.00316 µM) 93.5% | viability, T/C (second compound 0.1 µM, first compound 0.01 µM) 77.8% | viability, T/C [9] 80.4% | viability, T/C [10] 58.6% | viability, T/C (second compound 0.316 µM, first compound 0.000316 µM) 85.8% | viability, T/C (second compound 0.316 µM, first compound 0.001 µM) 94.5% | viability, T/C (second compound 0.316 µM, first compound 0.00316 µM) 90.8% | viability, T/C (second compound 0.316 µM, first compound 0.01 µM) 78.3% | viability, T/C [11] 68.2% | viability, T/C [12] 52.7% | viability, T/C (second compound 1 µM, first compound 0.000316 µM) 73.8% | viability, T/C (second compound 1 µM, first compound 0.001 µM) 74.8% | viability, T/C (second compound 1 µM, first compound 0.00316 µM) 70.6% | viability, T/C (second compound 1 µM, first compound 0.01 µM) 74.9% | viability, T/C [13] 60.8% | viability, T/C [14] 48.8% | viability, T/C (second compound 3.16 µM, first compound 0.000316 µM) 64.4% | viability, T/C (second compound 3.16 µM, first compound 0.001 µM) 57.6% | viability, T/C (second compound 3.16 µM, first compound 0.00316 µM) 58.4% | viability, T/C (second compound 3.16 µM, first compound 0.01 µM) 48.7% | viability, T/C [15] 49.7% | viability, T/C [16] 43.5% | viability, T/C (second compound 10 µM, first compound 0.000316 µM) 40.6% | viability, T/C (second compound 10 µM, first compound 0.001 µM) 36.1% | viability, T/C (second compound 10 µM, first compound 0.00316 µM) 39.7% | viability, T/C (second compound 10 µM, first compound 0.01 µM) 35% | viability, T/C [17] 29.7% | viability, T/C [18] 28.5%
> 0.1 µM: IC50 [1] | IC50 [2] | IC50 [3]
< 0.000316 µM: IC50 [6]

CC(C)n1nc(-c2ccc3oc(N)nc3c2)c2c(N)ncnc21
inactive: viability, T/C (compound 0.000316 µM) 111% [middle of 4 runs] | viability, T/C (compound 0.001 µM) 102% [middle of 4 runs] | viability, T/C (compound 0.00316 µM) 97.9% [middle of 4 runs] | viability, T/C (compound 0.01 µM) 89.7% [middle of 4 runs] | viability, T/C (compound 0.0316 µM) 78.6% [middle of 4 runs] | viability, T/C (compound 0.1 µM) 34% [middle of 4 runs]
63.4 nM [middle of 4 runs]: IC50 (curve of compound)

CNC(=O)c1ccc(N2C(=S)N(c3ccc(C#N)c(C(F)(F)F)c3)C(=O)C2(C)C)cc1F + CC(Nc1ncnc2nc[nH]c12)c1cc2cccc(Cl)c2c(=O)n1-c1ccccc1
inactive: viability, T/C [7] 113% | viability, T/C [8] 107% | viability, T/C [19] 101% | viability, T/C [20] 102% | viability, T/C [21] 102% | viability, T/C [22] 87.4% | viability, T/C [9] 113% | viability, T/C [10] 98.9% | viability, T/C [23] 96.6% | viability, T/C [24] 97.8% | viability, T/C [25] 92.8% | viability, T/C [26] 80.2% | viability, T/C [11] 105% | viability, T/C [12] 111% | viability, T/C [27] 93.5% | viability, T/C [28] 104% | viability, T/C [29] 118% | viability, T/C [30] 78.9% | viability, T/C [13] 99% | viability, T/C [14] 101% | viability, T/C [31] 100% | viability, T/C [32] 97.1% | viability, T/C [33] 105% | viability, T/C [34] 88.5% | viability, T/C [15] 92% | viability, T/C [16] 109% | viability, T/C [35] 93.9% | viability, T/C [36] 95.3% | viability, T/C [37] 95.5% | viability, T/C [38] 90.8% | viability, T/C [17] 82.7% | viability, T/C [18] 87.1% | viability, T/C [39] 100% | viability, T/C [40] 91.1% | viability, T/C [41] 87.7% | viability, T/C [42] 69%
> 10 µM: IC50 [1] | IC50 [2] | IC50 [3] | IC50 [4] | IC50 [5] | IC50 [6]

CNC(=O)c1ccc(N2C(=S)N(c3ccc(C#N)c(C(F)(F)F)c3)C(=O)C2(C)C)cc1F + Cc1nc(NC(=O)N2CCCC2C(N)=O)sc1-c1ccnc(C(C)(C)C(F)(F)F)c1
< 0.0316 µM: IC50 [6]
> 10 µM: IC50 [1] | IC50 [2] | IC50 [3] | IC50 [4] | IC50 [5]
inactive: viability, T/C [7] 106% | viability, T/C [8] 105% | viability, T/C [19] 118% | viability, T/C [20] 111% | viability, T/C [21] 104% | viability, T/C [22] 89.7% | viability, T/C [9] 90.1% | viability, T/C [10] 92.7% | viability, T/C [23] 106% | viability, T/C [24] 102% | viability, T/C [25] 102% | viability, T/C [26] 79% | viability, T/C [11] 91.4% | viability, T/C [12] 99.7% | viability, T/C [27] 98.1% | viability, T/C [28] 98.4% | viability, T/C [29] 89.7% | viability, T/C [30] 72.8% | viability, T/C [13] 73.2% | viability, T/C [14] 82.3% | viability, T/C [31] 76.7% | viability, T/C [32] 81.1% | viability, T/C [33] 78.6% | viability, T/C [34] 75.2% | viability, T/C [15] 64% | viability, T/C [16] 67.1% | viability, T/C [35] 55.1% | viability, T/C [36] 60.7% | viability, T/C [37] 64.7% | viability, T/C [38] 63.2% | viability, T/C [17] 40.3% | viability, T/C [18] 44.1% | viability, T/C [39] 40.2% | viability, T/C [40] 42% | viability, T/C [41] 45.7% | viability, T/C [42] 48.6%

Reference: PubChem BioAssay AID1963974 (Molecular Pharmacology Branch, DTP, NCI, 2024)
